According to patent US11918624B2, “Therapeutic composition for use in the treatment of COVID-19 and other cytokine storm associated disorders” (priority 2020, dated 2024):
Ends that are not written are not given here.

Columns and labels:
guinea pig complement = assay: antibody dependent complement mediated hemolysis assay; type: biochemical; conditions: 1 ug/mL peptide added to guinea pig complement, titrated against turkey erythrocytes with hemolysin
Procedure: The peptides were synthesized by Fmoc solid phase method, purified on C18 reversa phase chromatography, tested by adding each peptide to and screened for complement inhibitory activity, in a simple antibody dependent hemolysis system in which 1 ug/mL of peptides were added to guinea pig complement, and were titrated against turkey erythrocytes mixed with hemolysin, a complement fixing anti-erythrocyte antibody solution. In the presence the peptides, the hemolythic activity of the complement was reduced, and the corresponding dilutions was determined. The inhibition was estimated by a formula: Inhibition (%)=100−(dilution of sample titer*100)/dilution of control

C5a receptor = target: T1, C5a receptor (Homo sapiens, UniProt P21730); assay: C5a-induced Ca++ influx in C5a receptor-expressing U937 cells; type: cell-based
T1 construct: U937 cells bearing the C5a receptor were preincubated with this peptide; endogenous in cells; host or cells: U937 cells, cAMP stimulated
T1 sequence (P21730 1-350): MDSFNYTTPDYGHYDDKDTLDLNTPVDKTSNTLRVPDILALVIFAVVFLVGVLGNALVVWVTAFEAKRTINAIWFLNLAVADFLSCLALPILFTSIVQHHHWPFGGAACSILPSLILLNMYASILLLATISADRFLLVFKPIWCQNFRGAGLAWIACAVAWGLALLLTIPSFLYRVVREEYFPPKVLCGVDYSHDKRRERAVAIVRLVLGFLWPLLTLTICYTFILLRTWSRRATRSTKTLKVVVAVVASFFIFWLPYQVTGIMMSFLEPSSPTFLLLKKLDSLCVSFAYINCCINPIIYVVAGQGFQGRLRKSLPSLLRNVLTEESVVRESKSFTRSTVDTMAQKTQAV
Procedure: It was shown by its ability to inhibit Ca^++ influx induced by C5a anaphylatoxin in C5a receptor-expressing (cAMP stimulated) U937 cells.
(§1) Particularly, it is shown the IC50 achieved at pM levels. […] In addition, in the membrane bound state the peptide remains active for at least 12 hours. Therefore, it is a very effective C5aR inhibitor.

endothelin receptor = target: T2, endothelin receptor (Canis lupus familiaris, UniProt Q5KSU9); assay: iv ET-1 injection in dogs pretreated with peptide; type: in vivo
T2 construct: from tissue; host or cells: whole animal (dog), in vivo
T2 sequence (Q5KSU9 21-426): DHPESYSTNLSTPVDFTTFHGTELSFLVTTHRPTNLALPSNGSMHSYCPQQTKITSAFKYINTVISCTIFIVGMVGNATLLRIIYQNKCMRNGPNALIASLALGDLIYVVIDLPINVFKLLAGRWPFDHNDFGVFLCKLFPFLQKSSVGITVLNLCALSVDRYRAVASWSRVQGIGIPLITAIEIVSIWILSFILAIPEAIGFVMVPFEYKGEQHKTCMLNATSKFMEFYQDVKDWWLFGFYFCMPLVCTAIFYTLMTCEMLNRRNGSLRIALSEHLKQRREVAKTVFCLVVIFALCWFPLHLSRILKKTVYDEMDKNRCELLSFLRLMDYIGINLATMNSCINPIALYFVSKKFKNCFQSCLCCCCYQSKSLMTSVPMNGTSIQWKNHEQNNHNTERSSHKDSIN
Procedure: One of the peptides was subsequently tested in dogs and confirmed its biological effect in vivo. […] The elevated ET-1 level was marked with profound changes in circulation (details to be published elsewhere). However, pretreatment of dogs with 100 ug/kg ETR-P1/fl peptide removed the cardiovascular effects of injected ET-1 peptide from the circulation within 10 min and the measured endothelin level become normal. […] It is known in the previous art and has been patented and the patent expired.

C5aR = target: T3, C5aR (Homo sapiens, UniProt P21730); assay: persistence of activity of erythrocyte membrane bound peptide; conditions: erythrocyte membrane bound state
T3 construct: endogenous in cells; host or cells: 'C5aR bearing cells', not specified
T3 sequence (P21730 1-350): T1 sequence (P21730 1-350)
Procedure: The activity in vivo, in rat and pig models, is shown in the examples below. Further, it has been shown that the peptide can be delivered in vivo very safely, even at very high concentration. […] In addition, in the membrane bound state, the peptide remains active for at least 12 hours. Therefore, it is a very effective C5aR inhibitor.
as §1

C5a anaphylatoxin = assay: binding of AHB peptide to antisense peptides derived from C5a; conditions: C5a amino acids 37-43 and 61-74

Substance	Hemolysis inhibition (% of maximum) (guinea pig complement)	other results
VQAERSGIPIVTSPYQI [VQA1857, VQAERSGIPIVTSPYQI]	>80%	–
SDAGLTFTSS [SDA984, SDAGLTFTSS]	>80%	–
KYKHSVVKKSDGA (PL12-AHB peptide derived from C5a anaphylatoxin)	–	inhibition of C5a receptor activity / C5a-induced Ca++ influx (C5a receptor): not able to inhibit
SDKKGICVADPFEVT [SDK1606, SDKKGICVADPFEVT]	>80%	–
HWPFGGAACSILPSLI (Complement factor 5a receptor targeting inhibitor HWP1667) [PR101]	–	inhibition of C5a receptor activity / C5a-induced Ca++ influx (C5a receptor): did not affect the C5a-induced Ca^++ influx
LRLPYVVREQL [LRL1384, LRLPYVVREQL]	≤20%	–
LHLSVRTLELRP [LHL1431, LHLSVRTLELRP]	>40-60%	–
GQWKIRAYYENS [GQW1513, GQWKIRAYYENS]	≤20%	–
ESASLRSEETKV [ESA1331, ESASLRSEETKV]	>20-40%	–
LNLCALSVDRYRAVASWSRVI (Endothelin A receptor targeting inhibitor LNL2390) [ETR-P1/fl]	–	measured endothelin level after injected ET-1 (endothelin receptor; dogs, pretreatment 100 ug/kg): become normal; time to removal of cardiovascular effects of injected ET-1 (endothelin receptor; dogs, pretreatment 100 ug/kg, iv ET-1): ≤ 10 min; decrease of normal baseline level of ET peptide in plasma (endothelin receptor; dogs, transient): 30-50%; increase of ET-1 binding capacity of the endothelin receptor (endothelin receptor; receptor frozen in inactive conformation): 4 times
KRPQDAKNT [KRP1057, KRPQDAKNT]	>20-40%	–
QKKIEEIAAKYKHS (PL3-AHB peptide derived from C5a anaphylatoxin)	–	inhibition of C5a receptor activity / C5a-induced Ca++ influx (C5a receptor): not able to inhibit
LSRKVLLDGV [LSR1099, LSRKVLLDGV]	>20-40%	–
NIFLKDSITTWE [NIF1464, NIFLKDSITTWE]	>40-60%	–
TAYVVKVFSLAVN [TAY1409, TAYVVKVFSLAVN]	≤20%	–
LTAYVVKVFSLA [LTA1309, LTAYVVKVFSLA]	>80%	–
ERLGREGVQ [ERL1041, ERLGREGVQ]	>20-40%	–
LRANISHKDMQLGR (PL61-AHB peptide derived from C5a anaphylatoxin)	–	inhibition of C5a receptor activity / C5a-induced Ca++ influx (C5a receptor): not able to inhibit
APNHLLEVRV [AP1314, APNHLLEVRV]	>80%	–
LRTWSRRATRSTKTLKVV (Complement factor 5a receptor targeting inhibitor LRT2463) [PR226]	–	biphasic activity on C5a receptor (C5a receptor): inhibitor at high concentration and activator as low concentration
DDLKQLANGVDRYI [DDL1619, DDLKQLANGVDRYI]	>80%	–
RAARISLGPRSIKAFTE (PL37-AHB peptide derived from C5a anaphylatoxin)	–	inhibition of C5a receptor activity / C5a-induced Ca++ influx (C5a receptor): not able to inhibit
QRSYTVAIA [QRS1008, QRSYTVAIA]	>40-60%	–
IAVHYLDETEQW [IAV1501, IAVHYLDETEQW]	≤20%	–
LNCQRYYGGGGYST [LNC1538, LNCQRYYGGGGYST]	>20-40%	–
QALPYSTVGNSNL [QAL1363, QALPYSTVGNSNL]	>40-60%	–
(LRTWSRRATRSTKTLKVV)8K4K2KV [PR226MAP]	–	concentration of complete inhibition of C5a triggered Ca influx (C5a receptor; FIG. 2): 200 pM; concentration level at which C5a triggered Ca influx is inhibited (C5a receptor; serial dilution): femtomolar concentration levels; IC50 (C5a receptor; serial dilution, FIG. 2, read-out: IC50 of C5a triggered Ca influx): 1 pM; time the peptide remains active (C5aR): at least 12 hours
DYGHYDDKDTLDLNTPVD (Complement factor 5a receptor targeting inhibitor DYG2094) [PR10]	–	inhibition of C5a receptor activity / C5a-induced Ca++ influx (C5a receptor): did not inhibit the receptor activity; binding to antisense peptides derived from C5a anaphylatoxin (C5a anaphylatoxin): bound to two of its corresponding antisense peptides
